{
  "source": "paper PMC10916400",
  "about": "“Effect of the aggregated protein dye YAT2150 on Leishmania parasite viability” (Antimicrobial Agents and Chemotherapy, 2024)",
  "key": {"CYP2C19": {"molecular_target": "T1, CYP2C19 (Homo sapiens, UniProt P33261)", "T1 construct": "host or cells: baculovirus-infected insect cells (microsomes)", "T1 sequence (P33261 whole entry)": "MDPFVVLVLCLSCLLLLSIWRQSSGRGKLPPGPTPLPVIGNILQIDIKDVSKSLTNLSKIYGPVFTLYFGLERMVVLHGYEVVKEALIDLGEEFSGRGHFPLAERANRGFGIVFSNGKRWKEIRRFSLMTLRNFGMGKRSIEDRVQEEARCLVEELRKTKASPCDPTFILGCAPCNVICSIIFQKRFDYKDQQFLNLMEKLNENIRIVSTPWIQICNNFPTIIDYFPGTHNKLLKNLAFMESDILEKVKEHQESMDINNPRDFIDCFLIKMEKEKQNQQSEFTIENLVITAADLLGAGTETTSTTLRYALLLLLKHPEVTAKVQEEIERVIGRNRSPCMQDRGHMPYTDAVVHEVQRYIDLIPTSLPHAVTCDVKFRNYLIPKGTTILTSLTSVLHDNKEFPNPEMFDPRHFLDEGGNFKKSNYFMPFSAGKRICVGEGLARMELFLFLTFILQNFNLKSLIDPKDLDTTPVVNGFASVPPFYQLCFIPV", "experiment": "Cytochrome inhibition activity assay", "type": "biochemical", "conditions": "human recombinant enzyme, 37°C", "protocol": "(§1) To screen the inhibition potential of the compounds using recombinant human cytochrome P450 enzymes (CYP1A2, CYP2C9, CYP2C19, and CYP2D6) and probe substrates with fluorescent detection, incubations were conducted in a 200-µL volume in 96-well microtiter plates (Costar #3915; Corning Inc.). Addition of cofactor-buffer mixture (0.2 M KH2PO4 buffer, 1.3 mM NADP, 3.3 mM MgCl2, 3.3 mM glucose-6-phosphate, and 0.4 U/mL glucose-6-phosphate dehydrogenase), previously diluted control Supersomes (insect cell control for Supersomes enzymes, baculovirus-insect cell-expressed; Corning Inc.), standard inhibitors (furafylline, tranylcypromine, sulfaphenazole, and quinidine), and test compounds was carried out by a Zephyr liquid handling station (Caliper Life Sciences, Hopkinton, MA, US). The plate was then pre-incubated at 37°C for 5 min, and the reaction was initiated by the addition of pre-warmed enzyme/substrate mix, which contained buffer (KH2PO4), cDNA-expressed P450 in insect cell microsomes, substrate (3-cyano-7-ethoxycoumarin for CYP1A2 and CYP2C19, 7-methoxy-4-(trifluoromethyl)coumarin for CYP2C9, and 3-[2-(N,N-diethyl-N-methylammonium)ethyl]-7-methoxy-4-methylcoumarin for CYP2D6) to obtain the final assay concentrations in a reaction volume of 200 µL. Reactions were terminated after a specific time for each cytochrome by the addition of stop solution (ACN:0.5 M tris-HCl, 80:20 vol/vol). Fluorescence in each well was measured using a fluorescence plate reader (EnVision 2104 multilabel plate reader; PerkinElmer, Waltham, MA, US), and percentage of inhibition was calculated."}, "CYP1A2": {"molecular_target": "T2, CYP1A2 (Homo sapiens, UniProt P05177)", "T2 construct": "host or cells: baculovirus-infected insect cells (microsomes)", "T2 sequence (P05177 1-516)": "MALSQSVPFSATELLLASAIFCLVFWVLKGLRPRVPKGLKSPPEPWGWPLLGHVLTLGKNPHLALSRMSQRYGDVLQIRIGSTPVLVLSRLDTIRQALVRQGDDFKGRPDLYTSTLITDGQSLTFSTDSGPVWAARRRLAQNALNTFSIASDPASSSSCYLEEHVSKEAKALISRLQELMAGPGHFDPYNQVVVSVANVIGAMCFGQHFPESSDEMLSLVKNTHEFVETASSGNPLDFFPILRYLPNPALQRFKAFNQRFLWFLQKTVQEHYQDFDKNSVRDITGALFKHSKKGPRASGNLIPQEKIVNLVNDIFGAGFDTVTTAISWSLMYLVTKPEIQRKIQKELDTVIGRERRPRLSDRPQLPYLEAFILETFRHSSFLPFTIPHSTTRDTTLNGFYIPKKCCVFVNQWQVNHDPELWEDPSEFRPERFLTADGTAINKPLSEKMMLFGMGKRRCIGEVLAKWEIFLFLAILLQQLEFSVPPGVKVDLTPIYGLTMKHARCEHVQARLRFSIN", "experiment": "Cytochrome inhibition activity assay", "type": "biochemical", "conditions": "probe 3-cyano-7-ethoxycoumarin, human recombinant enzyme, 37°C", "protocol": "as §1"}, "CYP2C9": {"molecular_target": "T3, CYP2C9 (Homo sapiens, UniProt P11712)", "T3 construct": "host or cells: baculovirus-infected insect cells (microsomes)", "T3 sequence (P11712 whole entry)": "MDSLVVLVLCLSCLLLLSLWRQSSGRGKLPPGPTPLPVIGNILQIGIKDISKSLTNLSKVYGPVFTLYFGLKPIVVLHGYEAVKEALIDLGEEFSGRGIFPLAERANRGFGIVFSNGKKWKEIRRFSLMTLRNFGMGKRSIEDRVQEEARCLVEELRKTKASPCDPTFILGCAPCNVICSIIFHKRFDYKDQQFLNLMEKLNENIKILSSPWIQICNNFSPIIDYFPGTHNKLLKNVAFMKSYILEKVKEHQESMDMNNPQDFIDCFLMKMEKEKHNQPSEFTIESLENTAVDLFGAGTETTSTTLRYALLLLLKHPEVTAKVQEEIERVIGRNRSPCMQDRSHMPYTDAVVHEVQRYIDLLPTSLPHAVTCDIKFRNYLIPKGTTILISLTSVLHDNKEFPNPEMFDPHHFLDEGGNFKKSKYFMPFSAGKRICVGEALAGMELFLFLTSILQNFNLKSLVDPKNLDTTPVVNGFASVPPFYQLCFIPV", "experiment": "Cytochrome inhibition activity assay", "type": "biochemical", "conditions": "probe 7-methoxy-4-(trifluoromethyl)coumarin, human recombinant enzyme, 37°C", "protocol": "as §1"}, "CYP2D6": {"molecular_target": "T4, CYP2D6 (Homo sapiens, UniProt P10635)", "T4 construct": "host or cells: baculovirus-infected insect cells (microsomes)", "T4 sequence (P10635 whole entry)": "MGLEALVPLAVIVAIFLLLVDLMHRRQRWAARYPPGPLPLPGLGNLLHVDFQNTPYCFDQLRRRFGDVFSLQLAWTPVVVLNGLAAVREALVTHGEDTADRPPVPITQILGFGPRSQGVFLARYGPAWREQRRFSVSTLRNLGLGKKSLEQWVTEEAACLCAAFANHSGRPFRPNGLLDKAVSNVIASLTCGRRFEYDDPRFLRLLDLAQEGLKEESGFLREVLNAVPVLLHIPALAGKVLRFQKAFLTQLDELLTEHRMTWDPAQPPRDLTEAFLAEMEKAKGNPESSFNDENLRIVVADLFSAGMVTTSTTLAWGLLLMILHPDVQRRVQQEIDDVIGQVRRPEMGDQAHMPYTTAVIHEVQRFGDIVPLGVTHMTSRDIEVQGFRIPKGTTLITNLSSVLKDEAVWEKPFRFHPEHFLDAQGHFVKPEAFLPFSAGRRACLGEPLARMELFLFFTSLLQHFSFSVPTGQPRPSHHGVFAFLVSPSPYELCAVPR", "experiment": "Cytochrome inhibition activity assay", "type": "biochemical", "conditions": "human recombinant enzyme, 37°C", "protocol": "as §1"}, "in vitro": {"experiment": "in vitro", "type": "cell-based", "conditions": "human umbilical vein endothelial cells, 48 h", "protocol": "Human umbilical vein endothelial cells were maintained in M-199 supplemented with 10% fetal bovine serum (FBS) and 1% penicillin-streptomycin at 37°C, 5% CO2, and seeded in 96-well plates at a density of 50,000 cells/mL. After allowing cell adherence for 24 h, the medium was removed, and drugs or nanoformulations were added in M-199 supplemented with 1% penicillin-streptomycin. Plates were incubated for 48 h, and then, the medium in each well was replaced by 100 µL of M-199 containing penicillin-streptomycin and 0.00125% resazurin sodium salt (Sigma-Aldrich Corporation). Plates were incubated for 4 h, and resorufin fluorescence emission was measured (λex/em: 535/590 nm) in a Tecan Infinite 200 PRO equipment (Tecan Trading AG)."}, "P. falciparum": {"tested_on": "P. falciparum", "design": "method as in PMID 36271358", "conditions": "read-out: IC50 in in vitro P. falciparum cultures; cited from earlier work"}, "L. major promastigotes": {"tested_on": "L. major promastigotes", "experiment": "Luciferase assay for free intracellular ATP levels", "type": "cell-based, Leishmania major", "conditions": "luciferase-expressing L. major promastigotes, DMNPE-luciferin", "protocol": "The process described in reference ([62]) was followed. Briefly, L. major promastigotes (Friendlin strain) were transfected with the pLEXSY-hyg2.1 expression vector (Jena Bioscience, Jena, Germany) containing a cytoplasmic form of firefly luciferase mutated at its C-terminal tripeptide to prevent its import into the glycosome. Promastigotes were grown in Roswell Park Memorial Institute 1640 medium (RPMI) supplemented with 10% FBS, 2 mM L-glutamine, 1,000 U/mL penicillin/streptomycin (Gibco, Billings, MT, US), and 100 µg/mL hygromycin (InvivoGen, San Diego, CA, US) at 26°C. To assess variation in the intracellular concentration of free ATP, parasites were harvested at the late exponential phase of growth. After two washes with Hanks balanced buffer, parasites were resuspended in the same buffer supplemented with 10 mM D-glucose at 2.2 × 10^7 parasites/mL. After the addition of DMNPE-caged D-luciferin (GoldBio, St. Louis, MO, US) at 50 µM final concentration, the parasite suspension was aliquoted (90 µL/well) into a black 96-microwell plate (Nunc A/S, Roskilde, Denmark), and luminescence readout was monitored in a POLARstar Galaxy microplate reader (BMG LABTECH GmbH) with a luminescence setup. Once the luminescence reached a plateau, 10 µL of a YAT2150 solution at 10× fold its final concentration was added (t0) and the luminescence value at this point was considered as 100%. […]"}},
  "data": [
    {"smiles": "CCN(CC)c1ccc(/C=C/c2cc[n+](CCCCCCCCCC[n+]3ccc(/C=C/c4ccc(N(CC)CC)cc4)c(C)c3)cc2C)cc1", "note": "[YAT2150]", "values": [
      {"measurement": "IC50", "setting": "CYP2C19", "value": 1100, "unit": "nM"},
      {"measurement": "inhibition at 10 µM", "setting": "CYP1A2", "value": "~50", "unit": "%"},
      {"measurement": "inhibition at 10 µM", "setting": "CYP2C9", "value": "~50", "unit": "%"},
      {"measurement": "IC50", "setting": "CYP2D6", "value": 1700, "unit": "nM"},
      {"measurement": "CC50", "setting": "in vitro", "value": "3.4 ± 0.5", "unit": "µM"},
      {"measurement": "IC50", "setting": "P. falciparum", "value": "~90", "unit": "nM"},
      {"measurement": "concentration beyond which a concentration-dependent reduction in luminescence (ATP) was observed", "setting": "L. major promastigotes", "value": "> 2", "unit": "µM"}
    ]}
  ]
}
